# Source: patent US11286268B1, “EIF4E-inhibiting compounds and methods” (EFFECTOR THERAPEUTICS, INC., priority 2019, dated 2022)
# Where two headings read alike, the source gives them in different places.
# Target: recombinant eIF4E (Homo sapiens (Human), UniProt P06730)
# Test: Fluorescence polarization competition assay for eIF4E binding potency
# Protocol: Compounds were screened for eIF4E binding potency using a fluorescence polarization competition assay. All binding reactions were performed in fluorescence polarization buffer (FPB) containing 20 mM Tris pH 7.5, 100 mM NaCl, 1 mM DTT, and 0.02% Tween-20. Final binding reactions contained 75 nM recombinant eIF4E (Beryllium, custom order), 20 nM EDA-m^7GDP-ATTO-550 (Jena Bioscience, NU-827-550) and varying concentrations of the inhibitory compound of interest. Final DMSO concentration in each reaction was 1%.
# eIF4E protein was pre-incubated with EDA-m^7GDP-ATTO-550 in FPB at 2× concentrations for 5 minutes prior to the addition of compounds. Compounds (100×) were prepared using 3-fold serial dilutions in 100% DMSO, and subsequently diluted 1:50 in FPB to produce 2× stocks. 50 μl of 2× eIF4E/EDA-m^7GDP-ATTO-550 were transferred to the wells of a 96-well half-area black flat bottom polystyrene plate. 50 μl of 2× test compound were added, and binding reactions were allowed to equilibrate for 30 minutes at room temperature while protected from light. The fluorescent polarization signal was detected using a Victor 2 multi-label counter (Perkin Elmer) and the concentration necessary to achieve inhibition of eIF4E/EDA-m^7GDP-ATTO-550 binding by 50% (IC50) was calculated using data from an 8-point compound dilution series.
# In Table 4A, IC50 values of less than 0.05 μM are labelled as “+++”, from 1 to 0.05 μM are labelled as “++”, and greater than 1 μM are labelled as “+”. ND=not determined.
# [1] = fluorescence polarization competition, 75 nM recombinant eIF4E, 20 nM EDA-m7GDP-ATTO-550, IC50 class, read-out: elF4E FP
# [2] = inhibition of eIF4E/EDA-m7GDP-ATTO-550 binding by 50%, Table 4B calculated values, read-out: IC50
# recombinant eIF4E, sequence (P06730 whole entry): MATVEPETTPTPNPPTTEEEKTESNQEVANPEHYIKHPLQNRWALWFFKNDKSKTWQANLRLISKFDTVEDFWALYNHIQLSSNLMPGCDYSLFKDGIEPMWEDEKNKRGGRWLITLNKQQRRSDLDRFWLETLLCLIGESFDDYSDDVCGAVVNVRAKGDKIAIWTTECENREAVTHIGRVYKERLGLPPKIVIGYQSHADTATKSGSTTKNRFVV
IC50 [1] [µM],IC50 [2] [µM],SMILES
< 0.05,–,Cc1c([N+](=O)O)c2cc(C(F)(F)F)cc(C#N)c2c(=O)n1CCOc1ccc(Cl)cc1-c1ccnc2c(C(=O)O)csc12 [compound 270]
< 0.05,0.0132,Cc1nc2cc(C(F)(F)F)cc([N+](=O)[O-])c2c(=O)n1CCOc1ccc(Cl)cc1-c1ccnc2c(C(=O)O)csc12 [compound 271]
< 0.05,0.0302,Cc1c(F)c2cc(C#N)cc(C#N)c2c(=O)n1CCOc1ccc(Cl)cc1-c1ccnc2c(C(=O)O)csc12 [compound 273]
< 0.05,0.0188,C=S(C)(=O)c1cc(C#N)c2c(=O)n(CCOc3ccc(Cl)cc3-c3ccnc4c(C(=O)O)csc34)c(C)c(F)c2c1 (stereo not drawn) [compound 274]
< 0.05,0.0228,Cc1nc2cc(F)c(C#N)c(C#N)c2c(=O)n1CCOc1ccc(Cl)cc1-c1ccnc2c(C(=O)O)csc12 [compound 276]
< 0.05,0.0307,Cc1nc2cc(S(C)(=O)=O)c(Cl)c(C#N)c2c(=O)n1CCOc1ccc(Cl)cc1-c1ccnc2c(C(=O)O)csc12 [compound 277]
< 0.05,0.0127,Cc1nc2cc(S(C)(=O)=O)c(F)c(C#N)c2c(=O)n1CCOc1ccc(Cl)cc1-c1ccnc2c(C(=O)O)csc12 [compound 278]
< 0.05,0.0178,Cc1nc2cc(F)c(S(C)(=O)=O)c(C#N)c2c(=O)n1CCOc1ccc(Cl)cc1-c1ccnc2c(C(=O)O)csc12 [compound 279]
< 0.05,0.0412,Cc1nc2cc(S(=O)(=O)N(C)C)c(F)c(C#N)c2c(=O)n1CCOc1ccc(Cl)cc1-c1ccnc2c(C(=O)O)csc12 [compound 280]
< 0.05,0.0375,Cc1nc2cc(F)c(S(=O)(=O)N(C)C)c(C#N)c2c(=O)n1CCOc1ccc(Cl)cc1-c1ccnc2c(C(=O)O)csc12 [compound 281]
< 0.05,0.0171,Cc1nc2ccc(S(=O)(=O)N3CCC(F)(F)CC3)c(C#N)c2c(=O)n1CCOc1ccc(Cl)cc1-c1ccnc2c(C(=O)O)csc12 [compound 282]
< 0.05,0.0406,Cc1nc2ccc(S(=O)(=O)N(C)Cc3ccccc3)c(C#N)c2c(=O)n1CCOc1ccc(Cl)cc1-c1ccnc2c(C(=O)O)csc12 [compound 283]
< 0.05,0.0196,Cc1nc2c(C3CCC(F)(F)CC3)ncc(C#N)c2c(=O)n1CCOc1ccc(Cl)cc1-c1ccnc2c(C(=O)O)csc12 [compound 284]
0.05 to 1,0.0725,Cc1nc2cc(C(F)(F)F)cc(C#N)c2c(=O)n1CCOc1ccncc1-c1ccnc2c(C(=O)O)csc12 [compound 285]
0.05 to 1,0.183,Cc1nc2cc(C#N)cc(C#N)c2c(=O)n1C/C=C/c1ccc(Cl)cc1-c1ccnc2c(C(=O)O)csc12 [compound 286]
< 0.05,0.0478,Cc1nc2cc(C(F)(F)F)cc(C#N)c2c(=O)n1CCOc1ccc(C#N)cc1-c1ccnc2c(C(=O)O)csc12 [compound 287]
< 0.05,0.0461,Cc1nc2c(F)cc(S(=O)(=O)N(C)C)c(C#N)c2c(=O)n1CCOc1ccc(Cl)cc1-c1ccnc2c(C(=O)O)csc12 [compound 288]
< 0.05,0.0191,Cc1nc2cc(C(F)(F)F)cc(C#N)c2c(=O)n1CCOc1cc(F)c(C#N)cc1-c1ccnc2c(C(=O)O)csc12 [compound 289]
< 0.05,0.0427,Cc1nc2cc(Cl)c(Cl)c(C#N)c2c(=O)n1CCOc1ccc(C#N)cc1-c1ccnc2c(C(=O)O)csc12 [compound 290]
0.05 to 1,0.0995,Cc1nc2cc(C(F)(F)F)cc(C#N)c2c(=O)n1CCOc1cnc(C#N)cc1-c1ccnc2c(C(=O)O)csc12 [compound 291]
0.05 to 1,0.203,Cc1nc2cc(C(F)(F)F)cc(C#N)c2c(=O)n1CCOc1ccc(C#N)nc1-c1ccnc2c(C(=O)O)csc12 [compound 292]
0.05 to 1,0.0639,Cc1nc2c(F)cc(S(C)(=O)=O)c(C#N)c2c(=O)n1CCOc1ccc(Cl)cc1-c1ccnc2c(C(=O)O)csc12 [compound 293]
< 0.05,0.0229,Cc1nc2c(F)c(C(F)(F)F)cc(C#N)c2c(=O)n1CCOc1ccc(Cl)cc1-c1ccnc2c(C(=O)O)csc12 [compound 294]
0.05 to 1,0.167,Cc1nc2cc(C(F)(F)F)cc(C#N)c2c(=O)n1CCOc1ccc(Cl)cc1-c1ccnc2c(C(F)(F)C(=O)O)csc12 [compound 295]
< 0.05,0.0363,Cc1nc2ccc(S(=O)(=O)c3ccccn3)c(C#N)c2c(=O)n1CCOc1ccc(Cl)cc1-c1ccnc2c(C(=O)O)csc12 [compound 297]

IC50 [1] [µM],IC50 [2] [µM],SMILES
0.05 to 1,0.101,Cc1nc2c(F)c(F)c(C(F)F)c(C#N)c2c(=O)n1CCOc1ccc(Cl)cc1-c1ccnc2c(C(=O)O)csc12 [compound 298]
< 0.05,0.0223,Cc1nc2cc(C(F)(F)F)cc(C#N)c2c(=O)n1CCOc1ccc(Cl)cc1-c1csc2c(C(=O)O)ccnc12 [compound 299]
< 0.05,0.0243,Cc1nc2cc(C(F)(F)F)cc(C#N)c2c(=O)n1CCOc1ccc(Cl)cc1-c1coc2c(C(=O)O)cccc12 [compound 300]
0.05 to 1,0.0576,Cc1nc2cc(C(F)(F)F)cc(C#N)c2c(=O)n1CCOc1ccc(Cl)cc1-c1csc2c(C(=O)O)cccc12 [compound 301]
0.05 to 1,0.0776,Cc1nc2c(F)cc(C(F)F)c(C#N)c2c(=O)n1CCOc1ccc(Cl)cc1-c1ccnc2c(-c3nnn[nH]3)csc12 [compound 302]
0.05 to 1,–,CONC(=O)c1csc2c(-c3cc(Cl)ccc3OCCn3c(C)nc4c(F)cc(C(F)F)c(C#N)c4c3=O)ccnc12 [compound 303]
> 1,1.6,Cc1nc2cc(C(F)(F)F)cc(Br)c2c(=O)n1CCOc1ccc(Cl)cc1-c1cccc(C(=O)O)c1 [compound 304]
0.05 to 1,0.431,Cc1nc2cc(C(F)(F)F)cc(Br)c2c(=O)n1CCOc1ccc(Cl)cc1-c1ccnc2c(C(=O)O)csc12 [compound 305]
0.05 to 1,0.0912,Cc1nc2cc(F)c(F)c(C#N)c2c(=O)n1CCOc1ccc(Cl)cc1-c1ccnc2c(-c3nnn[nH]3)csc12 [compound 306]
0.05 to 1,0.0594,Cc1nc2cc(F)c(F)c(C#N)c2c(=O)n1CCOc1ccc(Cl)cc1-c1ccnc2c(C(=O)NS(C)(=O)=O)csc12 [compound 307]
0.05 to 1,0.811,CONC(=O)c1csc2c(-c3cc(Cl)ccc3OCCn3c(C)nc4cc(F)c(F)c(C#N)c4c3=O)ccnc12 [compound 308]
0.05 to 1,0.0525,COc1c(C)n(CCOc2ccc(Cl)cc2-c2ccnc3c(C(=O)O)csc23)c(=O)c2c(C#N)cc(C(F)(F)F)cc12 [compound 309]
0.05 to 1,0.0977,Cc1c(O)c2cc(C(F)(F)F)cc(C#N)c2c(=O)n1CCOc1ccc(Cl)cc1-c1ccnc2c(C(=O)O)csc12 [compound 310]
0.05 to 1,0.0555,Cc1nc2cc(F)c(CN(C)C)c(C#N)c2c(=O)n1CCOc1ccc(Cl)cc1-c1ccnc2c(C(=O)O)csc12 [compound 311]
0.05 to 1,0.0756,Cc1nc2c(C#N)ccc(C#N)c2c(=O)n1CCOc1ccc(Cl)cc1-c1ccnc2c(C(=O)O)csc12 [compound 312]
< 0.05,0.0345,Cc1nc2c(OC(F)(F)F)ccc(C#N)c2c(=O)n1CCOc1ccc(Cl)cc1-c1ccnc2c(C(=O)O)csc12 [compound 313]
< 0.05,0.0428,Cc1nc2cc(C(F)(F)F)cc(C#N)c2c(=O)n1CCOc1ccc(Cl)cc1-c1cnnc2c(C(=O)O)csc12 [compound 314]
0.05 to 1,0.582,Cc1nc2cc(C(F)(F)F)cc(C#N)c2c(=O)n1CCOc1ccc(Cl)cc1-c1nsc2c(C(=O)O)csc12 [compound 315]
< 0.05,0.0204,Cc1nc2ccc(C(N)=O)c(C#N)c2c(=O)n1CCOc1ccc(Cl)cc1-c1ccnc2c(C(=O)O)csc12 [compound 316]
< 0.05,0.0171,Cc1nc2cc(C(N)=O)cc(C#N)c2c(=O)n1CCOc1ccc(Cl)cc1-c1ccnc2c(C(=O)O)csc12 [compound 317]
< 0.05,0.00292,Cc1c(S(C)(=O)=O)c2cc(C(F)(F)F)cc(C#N)c2c(=O)n1CCOc1ccc(Cl)cc1-c1ccnc2c(C(=O)O)csc12 [compound 318]
0.05 to 1,0.0535,Cc1nc2cc(C(F)(F)F)cc(C#N)c2c(=O)n1CCOc1ccc(Cl)cc1-c1cncc2c(C(=O)O)csc12 [compound 319]
< 0.05,0.0435,Cc1nc2cc(C(F)(F)F)cc(C#N)c2c(=O)n1CCOc1ccc(Cl)cc1-c1ccnc2c(C(=O)O)cn(C)c12 [compound 320]
< 0.05,0.00489,Cc1nc2cc(C(F)(F)F)c(CC3CN(CCF)C3)c(C#N)c2c(=O)n1CCOc1ccc(Cl)cc1-c1ccnc2c(C(=O)O)csc12 [compound 321]
